Assay results: patent US20120220564A1, “SELECTIVE CALCIUM CHANNEL MODULATORS” (Zalicus Pharmaceuticals Ltd., priority 2009, published 2012)

What was measured:
6 Hz psychomotor seizure = 6 Hz psychomotor seizure model of partial epilepsy; assay type: in vivo, mice; design: concentration or dose not given beside the values
Description: Compounds can also be evaluated for the protection against seizures induced by a 6 Hz, 0.2 ms rectangular pulse width of 3 s duration, at a stimulus intensity of 32 mA (CC97) applied to the cornea of male CF1 mice (20-30 g) according to procedures described by Barton et al, “Pharmacological Characterization of the 6 Hz Psychomotor Seizure Model of Partial Epilepsy,” Epilepsy Res. 47(3):217-27 (2001). Seizures are characterised by the expression of one or more of the following behaviours: stun, forelimb clonus, twitching of the vibrissae and Straub-tail immediately following electrical stimulation.

CYP2C9 = CYP2C9 (Homo sapiens, UniProt P11712); assay: cytochrome inhibition; assay type: in vitro ADME; details: read-out: inhibition of cytochrome 2C9
Description: (§1) In addition to being able to modulate a particular calcium channel (e.g., CaV 3.1, CaV 3.2, or CaV 3.3), it may be desirable that the compound has very low activity with respect to the hERG K^+ channel, which is expressed in the heart: compounds that block this channel with high potency may cause reactions which are fatal. See, e.g., Bowlby et al., “hERG (KCNH2 or KV11.1 K^+ Channels: Screening for Cardiac Arrhythmia Risk,” Curr. Drug Metab. 9(9):965-70 (2008)). […] Such compounds may be particularly useful in the methods described herein.

CYP3A4 = CYP3A4 (Homo sapiens, UniProt P08684); assay: cytochrome inhibition; assay type: in vitro ADME; details: read-out: inhibition of cytochrome 3A4
Description: as §1

α1H (CaV 3.2) = molecular target: T1, α1H (CaV 3.2) (Homo sapiens, UniProt O95180); assay: T-type calcium channel block, whole cell patch clamp; assay type: cell-based; details: HEK cells, mainly non-inactivated protocol; values above 10,000 nM represented as 10000
T1 construct: expressed in transfected cells; host or cells: HEK 293
Outline: (§2)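 HEK293 cells stably expressing human T-type channels, whole-cell patch clamp; compounds in external solution with 0.1-0.01% DMSO, applied by gravity. Mainly non-inactivating protocol: holding −110 mV, 1 s pre-pulse −100 mV, 50 ms test pulse −40 mV (inactivated protocol uses ~−85 mV pre-pulse); IC50 reported.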

α1G (CaV 3.1) = molecular target: T2, α1G (CaV 3.1) (Homo sapiens, UniProt O43497); assay: as above; assay type: cell-based; details: HEK cells, mainly non-inactivated protocol; values above 10,000 nM represented as 10000
T2 construct: expressed in transfected cells; host or cells: HEK 293
Outline: as §2

hERG K+ channel = hERG K+ channel (Homo sapiens, UniProt Q12809); assay: hERG activity
Description: as §1

CYP2D6 = CYP2D6 (Homo sapiens, UniProt P10635); assay: cytochrome inhibition; assay type: in vitro ADME; details: read-out: inhibition of cytochrome 2D6
CYP2D6, sequence (P10635 whole entry): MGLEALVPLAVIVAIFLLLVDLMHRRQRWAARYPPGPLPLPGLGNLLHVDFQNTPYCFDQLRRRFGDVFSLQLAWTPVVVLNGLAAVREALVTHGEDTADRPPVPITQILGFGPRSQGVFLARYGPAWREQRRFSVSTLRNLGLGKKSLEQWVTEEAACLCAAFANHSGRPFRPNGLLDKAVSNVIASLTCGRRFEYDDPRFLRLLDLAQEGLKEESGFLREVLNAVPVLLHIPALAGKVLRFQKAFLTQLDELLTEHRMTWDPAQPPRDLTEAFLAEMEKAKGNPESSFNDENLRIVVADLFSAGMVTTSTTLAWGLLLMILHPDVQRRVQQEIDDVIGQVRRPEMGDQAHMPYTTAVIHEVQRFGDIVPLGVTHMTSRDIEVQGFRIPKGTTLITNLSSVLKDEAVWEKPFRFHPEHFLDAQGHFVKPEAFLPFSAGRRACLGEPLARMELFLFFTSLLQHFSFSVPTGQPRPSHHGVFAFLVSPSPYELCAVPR

T1 sequence (O95180 whole entry): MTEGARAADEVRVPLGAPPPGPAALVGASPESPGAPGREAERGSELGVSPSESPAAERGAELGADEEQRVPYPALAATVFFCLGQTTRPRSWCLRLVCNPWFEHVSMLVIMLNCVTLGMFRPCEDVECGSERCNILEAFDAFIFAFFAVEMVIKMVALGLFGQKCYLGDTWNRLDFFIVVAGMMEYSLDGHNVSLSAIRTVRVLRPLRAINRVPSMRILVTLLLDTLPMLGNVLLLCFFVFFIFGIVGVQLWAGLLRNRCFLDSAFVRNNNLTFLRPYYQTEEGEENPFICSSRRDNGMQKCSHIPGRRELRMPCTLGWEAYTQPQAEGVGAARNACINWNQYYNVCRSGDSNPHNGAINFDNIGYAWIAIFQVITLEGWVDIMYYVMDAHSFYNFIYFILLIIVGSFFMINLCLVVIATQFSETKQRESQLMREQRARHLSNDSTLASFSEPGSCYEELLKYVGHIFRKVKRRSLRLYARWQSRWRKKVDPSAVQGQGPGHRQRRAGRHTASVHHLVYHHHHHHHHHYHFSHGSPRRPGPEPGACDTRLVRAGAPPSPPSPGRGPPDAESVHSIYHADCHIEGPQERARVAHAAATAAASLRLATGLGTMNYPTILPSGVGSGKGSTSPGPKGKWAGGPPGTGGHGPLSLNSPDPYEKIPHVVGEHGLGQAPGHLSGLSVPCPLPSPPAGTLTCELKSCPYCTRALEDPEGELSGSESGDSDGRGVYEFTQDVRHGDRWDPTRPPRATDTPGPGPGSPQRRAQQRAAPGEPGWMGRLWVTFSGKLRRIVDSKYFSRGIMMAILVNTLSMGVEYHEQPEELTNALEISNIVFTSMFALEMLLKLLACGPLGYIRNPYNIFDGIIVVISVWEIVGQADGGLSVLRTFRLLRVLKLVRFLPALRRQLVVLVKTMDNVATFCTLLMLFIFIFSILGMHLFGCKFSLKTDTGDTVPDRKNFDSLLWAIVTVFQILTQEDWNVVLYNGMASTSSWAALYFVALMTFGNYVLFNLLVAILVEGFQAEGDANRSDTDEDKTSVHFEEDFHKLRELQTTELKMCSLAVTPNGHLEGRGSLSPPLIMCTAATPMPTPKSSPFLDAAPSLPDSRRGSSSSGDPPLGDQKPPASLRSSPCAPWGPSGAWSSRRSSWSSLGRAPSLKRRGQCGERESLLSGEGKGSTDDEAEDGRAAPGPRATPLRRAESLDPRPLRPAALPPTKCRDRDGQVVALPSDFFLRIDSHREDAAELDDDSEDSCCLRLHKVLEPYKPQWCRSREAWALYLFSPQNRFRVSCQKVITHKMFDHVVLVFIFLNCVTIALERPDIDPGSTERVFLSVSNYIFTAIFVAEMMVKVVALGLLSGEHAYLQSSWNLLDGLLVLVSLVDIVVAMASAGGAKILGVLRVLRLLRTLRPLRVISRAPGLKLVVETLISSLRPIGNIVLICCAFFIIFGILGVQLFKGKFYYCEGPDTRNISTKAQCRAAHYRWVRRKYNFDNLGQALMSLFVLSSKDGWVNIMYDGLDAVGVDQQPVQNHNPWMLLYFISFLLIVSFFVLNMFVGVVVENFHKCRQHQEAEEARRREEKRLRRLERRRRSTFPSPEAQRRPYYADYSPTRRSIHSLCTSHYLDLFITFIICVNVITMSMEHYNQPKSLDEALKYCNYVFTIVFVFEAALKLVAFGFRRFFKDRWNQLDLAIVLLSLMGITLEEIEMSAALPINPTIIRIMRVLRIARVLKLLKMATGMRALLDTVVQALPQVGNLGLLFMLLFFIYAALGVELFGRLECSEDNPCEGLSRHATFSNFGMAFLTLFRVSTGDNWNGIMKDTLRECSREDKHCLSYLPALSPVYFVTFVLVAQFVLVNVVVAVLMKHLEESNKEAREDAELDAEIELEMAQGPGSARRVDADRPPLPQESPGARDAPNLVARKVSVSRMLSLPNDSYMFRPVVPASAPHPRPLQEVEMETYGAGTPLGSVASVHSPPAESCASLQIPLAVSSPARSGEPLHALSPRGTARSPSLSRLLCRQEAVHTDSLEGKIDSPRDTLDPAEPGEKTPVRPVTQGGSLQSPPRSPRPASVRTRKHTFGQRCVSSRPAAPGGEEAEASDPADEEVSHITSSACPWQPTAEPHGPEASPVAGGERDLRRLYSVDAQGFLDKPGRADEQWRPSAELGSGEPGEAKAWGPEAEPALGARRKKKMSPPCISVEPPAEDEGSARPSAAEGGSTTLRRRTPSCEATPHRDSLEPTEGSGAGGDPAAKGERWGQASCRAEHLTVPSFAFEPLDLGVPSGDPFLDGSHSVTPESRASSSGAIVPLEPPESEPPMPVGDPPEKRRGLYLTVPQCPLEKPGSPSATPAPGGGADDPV
CYP3A4, sequence (P08684 whole entry): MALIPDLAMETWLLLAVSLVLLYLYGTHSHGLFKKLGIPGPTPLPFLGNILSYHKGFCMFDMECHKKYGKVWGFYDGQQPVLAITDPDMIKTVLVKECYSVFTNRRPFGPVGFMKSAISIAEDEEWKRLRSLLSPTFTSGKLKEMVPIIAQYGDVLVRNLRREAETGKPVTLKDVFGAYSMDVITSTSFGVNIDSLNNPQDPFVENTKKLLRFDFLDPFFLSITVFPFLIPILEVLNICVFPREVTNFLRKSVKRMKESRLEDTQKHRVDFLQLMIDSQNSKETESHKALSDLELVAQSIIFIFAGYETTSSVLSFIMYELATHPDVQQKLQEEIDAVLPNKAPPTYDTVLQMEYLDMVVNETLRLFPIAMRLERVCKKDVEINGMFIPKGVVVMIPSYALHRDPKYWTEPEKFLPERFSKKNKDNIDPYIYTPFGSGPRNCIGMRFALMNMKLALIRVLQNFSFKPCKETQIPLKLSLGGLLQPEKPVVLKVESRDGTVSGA
CYP2C9, sequence (P11712 whole entry): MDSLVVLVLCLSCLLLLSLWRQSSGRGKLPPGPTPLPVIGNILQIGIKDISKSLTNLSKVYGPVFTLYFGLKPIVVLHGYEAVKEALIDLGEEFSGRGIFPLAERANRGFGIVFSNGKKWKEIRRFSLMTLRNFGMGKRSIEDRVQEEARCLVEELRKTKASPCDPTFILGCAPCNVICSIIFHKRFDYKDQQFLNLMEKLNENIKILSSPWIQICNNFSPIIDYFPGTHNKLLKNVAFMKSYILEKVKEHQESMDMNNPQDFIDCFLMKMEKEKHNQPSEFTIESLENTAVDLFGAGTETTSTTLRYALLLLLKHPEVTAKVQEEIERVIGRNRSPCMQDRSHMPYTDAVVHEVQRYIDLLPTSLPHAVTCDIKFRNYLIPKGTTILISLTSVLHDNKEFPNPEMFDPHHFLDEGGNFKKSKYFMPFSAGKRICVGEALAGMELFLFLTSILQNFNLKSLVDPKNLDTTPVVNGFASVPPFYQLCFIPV
hERG K+ channel, sequence (Q12809 whole entry): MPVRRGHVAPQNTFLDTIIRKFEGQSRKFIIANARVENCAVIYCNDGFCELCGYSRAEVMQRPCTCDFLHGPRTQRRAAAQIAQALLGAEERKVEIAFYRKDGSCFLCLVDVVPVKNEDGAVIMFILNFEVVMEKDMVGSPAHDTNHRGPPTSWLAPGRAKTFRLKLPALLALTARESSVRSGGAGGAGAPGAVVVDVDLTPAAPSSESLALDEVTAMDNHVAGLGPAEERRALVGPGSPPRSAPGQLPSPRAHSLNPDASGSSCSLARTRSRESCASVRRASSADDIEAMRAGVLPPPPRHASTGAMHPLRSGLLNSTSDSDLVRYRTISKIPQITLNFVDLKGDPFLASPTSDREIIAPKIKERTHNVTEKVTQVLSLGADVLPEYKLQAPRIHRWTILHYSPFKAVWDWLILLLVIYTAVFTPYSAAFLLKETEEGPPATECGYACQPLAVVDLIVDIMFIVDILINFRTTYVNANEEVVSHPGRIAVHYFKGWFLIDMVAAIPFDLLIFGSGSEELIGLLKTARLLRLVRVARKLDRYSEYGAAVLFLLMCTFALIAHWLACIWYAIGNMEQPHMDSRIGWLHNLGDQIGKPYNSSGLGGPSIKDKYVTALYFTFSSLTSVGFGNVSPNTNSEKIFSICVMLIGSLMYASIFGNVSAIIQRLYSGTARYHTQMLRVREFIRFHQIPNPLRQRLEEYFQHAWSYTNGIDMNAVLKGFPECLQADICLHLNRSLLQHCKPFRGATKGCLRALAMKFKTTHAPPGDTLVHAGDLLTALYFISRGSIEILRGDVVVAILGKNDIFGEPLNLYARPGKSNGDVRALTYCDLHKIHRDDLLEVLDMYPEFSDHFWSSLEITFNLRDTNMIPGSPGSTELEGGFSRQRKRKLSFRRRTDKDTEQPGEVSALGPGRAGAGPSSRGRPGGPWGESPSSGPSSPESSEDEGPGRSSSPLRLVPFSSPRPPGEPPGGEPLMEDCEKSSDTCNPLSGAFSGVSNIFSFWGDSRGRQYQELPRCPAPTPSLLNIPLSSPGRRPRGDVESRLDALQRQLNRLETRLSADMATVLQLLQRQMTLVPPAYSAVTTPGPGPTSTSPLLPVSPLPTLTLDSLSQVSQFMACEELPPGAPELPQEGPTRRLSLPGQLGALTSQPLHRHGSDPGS

| Compound | Epilepsy 6 Hz (% Protected) (6 Hz psychomotor seizure; 0.25 hr) [%] | Epilepsy 6 Hz (% Protected) (6 Hz psychomotor seizure; 0.5 hr) [%] | Epilepsy 6 Hz (% Protected) (6 Hz psychomotor seizure; 1 hr) [%] | Epilepsy 6 Hz (% Protected) (6 Hz psychomotor seizure; 2 hr) [%] | Epilepsy 6 Hz (% Protected) (6 Hz psychomotor seizure; 4 hr) [%] | inhibition at 10 micromolar (CYP2C9) [%] | inhibition at 10 micromolar (CYP3A4) [%] | IC50 (α1H (CaV 3.2)) [nM] | IC50 (α1G (CaV 3.1)) [nM] | hERG activity (hERG K+ channel) | inhibition at 10 micromolar (CYP2D6) [%] |
| --- | --- | --- | --- | --- | --- | --- | --- | --- | --- | --- | --- |
| N[C@@H]1CCCC[C@H]1C(=O)N1CCC(CC(=O)Nc2cc(C(F)(F)F)cc(C(F)(F)F)c2)CC1 (racemic) [Compound 3, trans-2-(1-(2-aminocyclohexanecarbonyl)piperidin-4-yl)-N-(3,5-bis(trifluoromethyl)phenyl)acetamide] | 100 | 75 | 100 | 0 | 50 | < 10 | < 10 | 60 | > 10000 | negligible | < 10 |
| N-(3,5- bis(trifluoromethyl) phenyl)-2-(1- (piperidine-3- carbonyl)piperidin-4- yl)acetamide [Compound 2] | 50 | 50 | 100 | 33 | 0 | – | – | 350 | – | – | – |
